Laboratory results from patent US10173968B2, “Bishydrazone-based antifungal agents” (University of Kentucky Research Foundation, priority 2016, dated 2019).
Read-outs that look alike come from different tables or passages of the source.

Columns and labels:
A. baumannii ATCC 19606 = test: Antibacterial MIC, double-dilution method; assay type: cell-based; details: Acinetobacter baumannii, ATCC19606, strain E, Gram-negative, read-out: MIC
Outline: (§1)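 Step one: single-point test of each compound at 500 μM. Step two: MIC determination across doubling dilutions.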

B. subtilis 168 = test: Antibacterial MIC, double-dilution method; assay type: cell-based; details: Bacillus subtilis, strain A, Gram-positive
Outline: as §1

E. cloacae ATCC 13047 = test: Antibacterial MIC, double-dilution method; assay type: cell-based; details: Enterobacter cloacae, ATCC13047, strain F, Gram-negative, read-out: MIC
Outline: as §1

E. coli MC1061 = test: Antibacterial MIC, double-dilution method; assay type: cell-based; details: Escherichia coli, strain G, Gram-negative, read-out: MIC
Outline: as §1

K. pneumoniae ATCC 27736 = test: Antibacterial MIC, double-dilution method; assay type: cell-based; details: Klebsiella pneumoniae, ATCC27736, strain H, Gram-negative, read-out: MIC
Outline: as §1

[1] = tested on: L. monocytogenes ATCC 19115; test: Antibacterial MIC, double-dilution method; assay type: cell-based; details: Listeria monocytogenes, ATCC19115, strain B, Gram-positive, read-out: MIC
Outline: as §1

M. smegmatis MC2-155 = test: Antibacterial MIC, double-dilution method; assay type: cell-based; details: Mycolicibacterium smegmatis, MC2155, strain K, mycobacterial, read-out: MIC
Outline: as §1

MRSA = test: Antibacterial MIC, double-dilution method; assay type: cell-based; details: Staphylococcus aureus, strain C, Gram-positive, read-out: MIC
Outline: as §1

P. aeruginosa ATCC 27853 = test: Antibacterial MIC, double-dilution method; assay type: cell-based; details: Pseudomonas aeruginosa, ATCC27853, strain I, Gram-negative, read-out: MIC
Outline: as §1

S. enterica ATCC 14028 = test: Antibacterial MIC, double-dilution method; assay type: cell-based; details: Salmonella enterica, ATCC14028, strain J, Gram-negative, read-out: MIC
Outline: as §1

VRE = test: Antibacterial MIC, double-dilution method; assay type: cell-based; details: Enterococcus, strain D, Gram-positive, read-out: MIC
Outline: as §1

C. albicans ATCC 1003 = test: Antifungal MIC, CLSI M27-A3 microbroth dilution; assay type: cell-based, Candida albicans; details: Candida albicans, ATCC1003, read-out: MIC
Method: (§2) In vitro MIC testing was performed according to the CLSI M27-A3 standard microbroth dilution methodology for the susceptibility testing of yeasts with minor modifications.

C. albicans ATCC 10231 = test: Antifungal MIC, CLSI M27-A3 microbroth dilution; assay type: cell-based, Candida albicans; details: Candida albicans, ATCC10231, C. albicans ATCC 10231, resistant to FLC, ITC, and VOR, read-out: MIC
Method: as §2

C. albicans ATCC 1237 = test: Antifungal MIC, CLSI M27-A3 microbroth dilution; assay type: cell-based, Candida albicans; details: Candida albicans, ATCC1237, C. albicans ATCC 1237, resistant to FLC, ITC, and VOR, read-out: MIC
Method: as §2

C. albicans ATCC 2310 = test: Antifungal MIC, CLSI M27-A3 microbroth dilution; assay type: cell-based, Candida albicans; details: Candida albicans, ATCC2310, C. albicans ATCC 2310, susceptible to FLC, ITC, and VOR, read-out: MIC
Method: as §2

C. albicans ATCC 2876 = test: Antifungal MIC, CLSI M27-A3 microbroth dilution; assay type: cell-based, Candida albicans; details: Candida albicans, ATCC2876, C. albicans ATCC 2876, susceptible to FLC, ITC, and VOR, read-out: MIC
Method: as §2

C. albicans ATCC 64124 = test: Antifungal MIC, CLSI M27-A3 microbroth dilution; assay type: cell-based, Candida albicans; details: Candida albicans, ATCC64124, C. albicans ATCC 64124, resistant to FLC, ITC, and VOR, read-out: MIC
Method: as §2

C. albicans ATCC 90819 = test: Antifungal MIC, CLSI M27-A3 microbroth dilution; assay type: cell-based, Candida albicans; details: Candida albicans, ATCC90819, C. albicans ATCC 90819, resistant to FLC, ITC, and VOR, read-out: MIC
Method: as §2

[2] = tested on: L. monocytogenes ATCC 19115 (strain B); assay type: cell-based, Listeria monocytogenes; details: after 15 serial passages at sub-inhibitory concentrations
Method: (§3) The bacteria were grown in MH broth at 37° C. for these experiments. […] The resulting cultures were diluted 1:1000 and grown until the culture reached ˜300,000 cfu/mL. That culture was then further diluted 1:1000 and used to determine the next round of MIC values.

MRSA (strain C) = assay type: cell-based, Staphylococcus aureus; details: after 15 serial passages at sub-inhibitory concentrations
Method: as §3

VRE (strain D) = assay type: cell-based, enterococcus; details: after 15 serial passages at sub-inhibitory concentrations
Method: as §3

[3] = tested on: P. aeruginosa ATCC 27853 (strain I); assay type: cell-based; details: after 15 serial passages at sub-inhibitory concentrations
Method: as §3

[4] = Mammalian cell cytotoxicity, resazurin; assay type: cell-based; details: human
Method: Another important aspect to consider during the development of antimicrobial agents is their potential toxicity towards mammalian cells. Having established the potent antimicrobial activities of the bis(N-amidino)hydrazones and N-amidino-N′-aryl-bishydrazones against bacteria and fungi, the toxicity profile of these compounds was determined against two mammalian cell lines (A549 and BEAS-2B; FIGS. 4A-B). […]. Cytotoxicity assays were performed as previously described. The human lung carcinoma epithelial cells A549 and the normal human bronchial epithelial cells BEAS-2B were grown in F12-K and DMEM medium containing 10% fetal bovine serum (FBS) and 1% antibiotics, respectively. The confluent cells were trypsinized with 0.05%-trypsin-0.53 mM EDTA, centrifuged (1,200 rpm) and resuspended in fresh medium (F12-K or DMEM). The cells were seeded into 96-well microtiter plates at a density of 3,000 cells/well and were grown overnight. […] Triton X-100® (0.5%, v/v) gave complete loss of cell viability and was used as the positive control. The percent cell survival was calculated as: (test value/control value)×100, where control value represents cells+resazurin−drug, and test value represents cells+resazurin+drug.

[5] = tested on: all bacterial strains tested; test: Antibacterial MIC, summary over the panel; assay type: cell-based
Method: MIC values were determined against a variety of Gram-positive (strains A-D) and Gram-negative (E-J) bacterial and mycobacterial (K) strains using the double-dilution method, as previously published. Preliminary screening was performed using 500 μM of each compound.

Row | SMILES | MIC (A. baumannii ATCC 19606; converted from μM) [mg/L] | MIC (A. baumannii ATCC 19606; range 0.5 to 500 μM) [µM] | MIC (B. subtilis 168; converted from μM) [mg/L] | MIC (B. subtilis 168; range 0.5 to 500 μM) [µM] | MIC (E. cloacae ATCC 13047; converted from μM) [mg/L] | MIC (E. cloacae ATCC 13047; range 0.5 to 500 μM) [µM] | MIC (E. coli MC1061; converted from μM) [mg/L] | MIC (E. coli MC1061; range 0.5 to 500 μM) [µM] | MIC (K. pneumoniae ATCC 27736; converted from μM) [mg/L] | MIC (K. pneumoniae ATCC 27736; range 0.5 to 500 μM) [µM] | MIC ([1]; converted from μM) [mg/L] | MIC ([1]; range 0.5 to 500 μM) [µM] | MIC (M. smegmatis MC2-155; converted from μM) [mg/L] | MIC (M. smegmatis MC2-155; range 0.5 to 500 μM) [µM] | MIC (MRSA; converted from μM) [mg/L] | MIC (MRSA; range 0.5 to 500 μM) [µM] | MIC (P. aeruginosa ATCC 27853; converted from μM) [mg/L] | MIC (P. aeruginosa ATCC 27853; range 0.5 to 500 μM) [µM] | MIC (S. enterica ATCC 14028; converted from μM) [mg/L] | MIC (S. enterica ATCC 14028; range 0.5 to 500 μM) [µM] | further results
1 | C/C(=N\NC(=N)N)c1ccc(CCc2ccc(/C(C)=N/NC(=N)N)cc2)cc1.Cl.Cl [Compound 4D, (2E,2′E)-2,2′-((Ethane-1,2-diylbis(4,1-phenylene))bis(ethan-1-yl-1-ylidene))bis(hydrazine-1-carboximidamide) dihydrochloride] | > 226 | > 500 | > 226 | > 500 | > 226 | > 500 | > 226 | > 500 | > 226 | > 500 | 0.5 | 1 | 0.5 | 1 | 0.5 to 0.9 | 1 to 2 | > 226 | > 500 | > 226 | > 500 | MIC (VRE; converted from μM): 0.5 mg/L; MIC (VRE; range 0.5 to 500 μM): 1 µM; MIC (C. albicans ATCC 1003; C. albicans ATCC 1003, converted from μg/mL): 34.6 µM; MIC (C. albicans ATCC 1003): 15.6 mg/L; MIC (C. albicans ATCC 10231; converted from μg/mL): 17.3 µM; MIC (C. albicans ATCC 10231): 7.8 mg/L; MIC (C. albicans ATCC 1237; converted from μg/mL): 34.6 µM; MIC (C. albicans ATCC 1237): 15.6 mg/L; MIC (C. albicans ATCC 2310; converted from μg/mL): 69.3 µM; MIC (C. albicans ATCC 2310): 31.3 mg/L; MIC (C. albicans ATCC 2876; converted from μg/mL): 8.6 µM; MIC (C. albicans ATCC 2876): 3.9 mg/L; MIC (C. albicans ATCC 64124; converted from μg/mL): > 69.3 µM; MIC (C. albicans ATCC 64124): > 31.3 mg/L; MIC (C. albicans ATCC 90819; converted from μg/mL): 17.3 µM; MIC (C. albicans ATCC 90819): 7.8 mg/L; increase in relative MIC values [2]: 8 fold; increase in relative MIC values (MRSA (strain C)): 16 fold; increase in relative MIC values (VRE (strain D)): 16 fold; increase in relative MIC values [3]: 4 fold
2 | Cl.N=C(N)N/N=C/c1ccc(-c2ccc(/C=N/Nc3ccc(F)cc3)cc2)cc1 [Compound 7Ac, (E)-2-((4′-((E)-(2-(4-Fluorophenyl)hydrazono)methyl)-[1,1′-biphenyl]-4-yl)methylene)hydrazine-1-carboximidamide monohydrochloride] | – | – | – | – | – | – | – | – | – | – | – | – | – | – | – | – | – | – | – | – | IC50 at 24 h ([4]; BEAS-2B): 7.8 to 15.6 mg/L; IC50 at 24 h ([4]; A549, 24 h): 7.8 to 15.6 mg/L; MIC ([5]; read-out: antibacterial MIC values): 0.4 to 3.3 mg/L; melting point: > 380 °C
3 | CC1COc2c(N3CCN(C)CC3)c(F)cc3c(=O)c(C(=O)O)cn1c23 (stereo not shown) [OFX, ofloxacin, reference compound] | ≤ 0.2 | ≤ 0.5 | ≤ 0.2 | ≤ 0.5 | ≤ 0.2 | ≤ 0.5 | 1.4 to 2.8 | 3.9 to 7.8 | 5.6 to 11.3 | 15.6 to 31.3 | 0.4 | 1 | 5.6 | 15.6 | 0.4 | 1 | 1.4 | 3.9 | 5.6 to 11.3 | 15.6 to 31.3 | MIC (VRE; converted from μM): 2.8 mg/L; MIC (VRE; range 0.5 to 500 μM): 7.8 µM; MIC ([5]; read-out: MIC, span over all bacterial strains tested): 0.5 to 31.3 µM
